This is an account of results in patent US20230416247A1, “DRUG-LIKE MOLECULES AND METHODS FOR THE THERAPEUTIC TARGETING OF MICRORNA-21” (University of Washington, priority 2020, published 2023).

Assay [1] deals with pre-miR-21 processing by Dicer-TRBP. The assay is described as follows: Dicer/TRBP in vitro processing of pre-miR-21. It counts as biochemical, human. The note with it: for inhibition of Dicer processing: pre-miR-21 compared with pre-Let7. As for the experimental part:
In order to further assess the biochemical activity of our compounds, processing of pre-miR-21 and pre-Let7 by Dicer-TRBP in vitro was compared. FIGS. 9A and 9B show selective response in the rate of processing under early phase reaction conditions, before significant product builds up, for pre-miR21 compared to pre-Let7.
The results are specific to the initial rates (0.25-5 min) of the reaction. […] This is inevitable because Dicer binds the product tightly. This assay and method of inhibiting miR-21 synthesis is different than typical enzymatic assays. First, the small molecule is targeting the substrate of the enzymatic assay. High affinity compounds that change the structure of the substrate may reduce processing but might not inhibit processing completely. Rather, changes in the specificity constant (kcat/Km), are a better measure of small molecule inhibition than traditional Ki's.
Dicer/TRBP. The Dicer/TRBP enzyme complex was expressed and purified using published methods and stored at −80° C. in 20 μL aliquots until needed. Briefly, the gene encoding human full-length Dicer was inserted into a modified pFastBac1 vector (Invitrogen), which has an N-terminal glutathione-S-transferase (GST) tag. The GST fusion proteins were expressed in HiFive insect cells following standard procedures and isolated by glutathione affinity chromatography using buffer A (20 mM Tris-HCl pH 8.0, 150 mM NaCl, 2 mM DTT). After on-column cleavage by Tobacco Etch Virus (TEV) protease overnight, the proteins were eluted, concentrated and loaded onto Superdex 200 GL column equilibrated in buffer A. Sequences coding for human full-length TRBP2 were cloned into a modified pET28a vector with an N-terminal GB1 tag. The clones were transformed into Rosetta 2 cells and the transformants were grown in LB media at 37° C. until the cells reached a density corresponding to an OD reading of 0.8 at 600 nm. Protein expression was induced by addition of 0.2 mM IPTG at 18° C. for 20 hours. The cells were harvested, pelleted and resuspended in 20 mM Tris-HCl pH 8.0, 500 mM NaCl, mM imidazole, with 5 mM β-ME. […]

The subject of the next assay is PDCD4 in AGS cells. Description: Western blot of PDCD4 in AGS cells. It counts as cell-based, human. Particulars: 48 hours of incubation, relative to DMSO control, normalized to β-actin. As for the experimental part: Data in FIG. 16B are reported as enhancement of PDCD4 levels, relative to DMSO control (no compound added).
Western blot analysis. Western blot analysis was conducted according to standard protocols. Briefly, proteins were collected from cells and lysed and the Bradford assay was used to measure protein concentrations. Quantification of protein expression was conducted using the image analysis software ImageJ.
For orientation: A western blot detects proteins with antibodies after separation by electrophoresis.

“Also recorded” adds a separate entry of the source.

As for `O=c1[nH]c(Nc2ccc(N3CCNCC3)cn2)nc2cccnc12` [Compound 25], the “pre-miR-21 processing by DICER/TRBP” value in assay [1] (2 μM compound vs no compound, initial rates) is reported as “processing activity is visibly reduced; also recorded: visibly reduced pre-miR-21 processing”. Besides, the “inhibition of Dicer processing” value in assay [1] is recorded as “specifically inhibit Dicer processing”. The “levels of PDCD4 (Western blot)” value in the assay on PDCD4 in AGS cells (listed as −0045) is reported as “an increase was observed; also recorded: increase levels of PDCD4”.
With `O=c1[nH]c(Nc2ccc(N3CCNCC3)cn2)nc2cnccc12` [Compound 30], the “inhibition of Dicer processing” value in assay [1] is reported as “specifically inhibit Dicer processing”. In addition, the “levels of PDCD4 (Western blot)” value with PDCD4 in AGS cells (listed as −0052) is reported as “an increase was observed; also recorded: increase levels of PDCD4”.
